These are literature values, as cited in patent US20060045857A1, “Sunless tanning composition and methods for using” (priority 2004, published 2006).

The conditions of this data set: in vivo.

Consider “Poly(vinylpyrrolidone/1-hexadecene) [PVPH]”, for which the dermal toxicity entry is given as “no demonstrable dermal toxicity”.

With “poly(vinylpyrrolidone/1-eicosene) [PVPE]”, the dermal toxicity entry is on record as “no demonstrable dermal toxicity”.
